Source: patent US4383113A, “Agricultural sulfonamides” (E. I. Du Pont de Nemours and Company, priority 1981, dated 1983)

Legend:
morningglory = experiment: Test E pre-emergence; format: in vivo, Ipomoea hederacea; conditions: 1/32 kg/ha
Text: (§1) The containers used were 25 cm diameter plastic pots filled with fertilized and limed Fallsington silt loam. Plantings of the following weed species were made twice, at a 10-day interval: mustard (Brassica arvensis), cocklebur (Xanthium spp.), morningglory (Ipomoea hederacea), cassia (Cassia tora), velvetleaf (Abutilon theophrasti), alfalfa (used as an indicator species), kochia (Kochia scoparia), sesbania (Sesbania exaltata), Russian thistle (Salsola kali), jimsonweed (Datura stramonium),and nutsedge (Cyperus rotundus). In addition, wheat and barley were planted in separate 15 cm diameter plastic pots filled with the same soil at the time of the early planting only. All plantings were treated with the test chemicals dissolved in a non-phytotoxic solvent immediately following completion of the second planting operation. At this time, the wheat was around 15-17.5 cm tall and the barley 12.5 to 15 cm tall, both in the 2-leaf stage of growth. The weed species of the earliest planting date were from 2.5 to 12.5 cm tall. The rates of application selected were 0.004, 0.007, 0.015 and 0.030 kg/ha for the weed phase and 0.12, 0.25 and 0.50 kg/ha for wheat and barley. The post-emergence part of this test was visually rated for plant response 21 days after treatment, and the pre-emergence part 28 days after treatment.

nutsedge [1] = experiment: Test E pre-emergence; format: in vivo, Cyperus rotundus
Text: as §1

alfalfa = experiment: Test E pre-emergence; format: in vivo
Text: as §1

kochia = experiment: Test E pre-emergence; format: in vivo, Kochia scoparia
Text: as §1

mustard [2] = experiment: Test E pre-emergence; format: in vivo, Brassica arvensis
Text: as §1

Russian thistle = experiment: Test E pre-emergence; format: in vivo, Salsola kali
Text: as §1

sesbania = experiment: Test E pre-emergence; format: in vivo, Sesbania exaltata; conditions: 1/64 kg/ha
Text: as §1

cocklebur = experiment: Test E post-emergence; format: in vivo, Xanthium spp.
Text: as §1

mustard [3] = experiment: Test E post-emergence; format: in vivo, Brassica arvensis
Text: as §1

wheat = experiment: Test E post-emergence; format: in vivo; conditions: 1/2 kg/ha
Text: as §1

nutsedge [4] = experiment: Test E post-emergence; format: in vivo, Cyperus rotundus
Text: as §1

barley = experiment: Test E post-emergence; format: in vivo; conditions: 1/2 kg/ha
Text: as §1

purple nutsedge [5] = experiment: Test G surface spray; format: in vivo, Cyperus rotundus; conditions: high OM
Text: (§2) Purple nutsedge tubers (Cyperus rotundus, L.) were planted about 2 cm deep in Fallsington silt loam (about 1% organic matter from Delaware) and in Flanagan loam (about 4% organic matter) from Illinois. Five tubers were planted in each 10 cm diameter plastic pot. Treatments recorded in Table XVII were applied in three different ways, i.e., soil surface spray, tuber/soil spray and soil incorporated. In surface sprays, the material was sprayed on the firmed soil surface after planting, but before nutsedge emergence. In tuber/soil sprays, the material was sprayed on exposed tubers and subtending soil before the tubers were covered with untreated soil. Soil incorporated treatments were mixed in the covering soil.
(§3) Immediately after treating, the treated pots were misted with about 0.3 cm of water over a 90 minute period and placed in the greenhouse.

purple nutsedge [6] = experiment: Test G soil incorporated; format: in vivo, Cyperus rotundus; conditions: .032 kg/ha, low OM
Text: as §2, §3

`COc1nc(NC(=O)NS(=O)(=O)c2ccccc2C(=O)OC(C)C)nc(OC)n1` [drawing 587] showed a response rating (morningglory) of 8G, a response rating (nutsedge [1]; 1/64 kg/ha) of 9G and a response rating (nutsedge [1]; 1/128 kg/ha) of 8G. For the same molecule, the response rating (nutsedge [1]; 1/256 kg/ha) was 7G, the response rating (alfalfa; 1/64 kg/ha) was 5G and the response rating (alfalfa; 1/256 kg/ha) was 5G. For the same molecule, the response rating (kochia; 1/32 kg/ha) was 10C, the response rating (kochia; 1/64 kg/ha) was 10C and the response rating (kochia; 1/128 kg/ha) was 10C. The response rating (mustard [2]; 1/32 kg/ha) was 10C, the response rating (mustard [2]; 1/64 kg/ha) was 10C and the response rating (mustard [2]; 1/128 kg/ha) was 10C. It also gave a response rating (Russian thistle; 1/32 kg/ha) of 9C, a response rating (Russian thistle; 1/64 kg/ha) of 7C and a response rating (Russian thistle; 1/128 kg/ha) of 7C. It also gave a response rating (Russian thistle; 1/256 kg/ha) of 5C and a response rating (sesbania) of 8G.
In the case of `COc1nc(NC(=O)NS(=O)(=O)c2ccccc2C(=O)OC(C)C)nc(OC)n1` [drawing 589], the response rating (cocklebur; 1/32 kg/ha) is reported as 10C, the response rating (cocklebur; 1/64 kg/ha) is reported as 10C and the response rating (cocklebur; 1/128 kg/ha) is reported as 10C. It also gave a response rating (cocklebur; 1/256 kg/ha) of 10C, a response rating (mustard [3]; 1/32 kg/ha) of 10C and a response rating (mustard [3]; 1/64 kg/ha) of 10C. The response rating (mustard [3]; 1/128 kg/ha) was 10C, the response rating (mustard [3]; 1/256 kg/ha) was 10C and the response rating (wheat) was 2G. It also gave a response rating (nutsedge [4]; 1/32 kg/ha) of 10G.
`COc1nc(C)nc(NC(=O)NS(=O)(=O)c2ccccc2C(=O)OC(C)C)n1` [drawing 590] was tested, and the response rating (cocklebur; 1/32 kg/ha) was 10C, the response rating (cocklebur; 1/64 kg/ha) was 10C and the response rating (cocklebur; 1/128 kg/ha) was 10C. It also gave a response rating (cocklebur; 1/256 kg/ha) of 10C, a response rating (mustard [3]; 1/32 kg/ha) of 10C and a response rating (mustard [3]; 1/64 kg/ha) of 10C. It also gave a response rating (mustard [3]; 1/128 kg/ha) of 10C, a response rating (mustard [3]; 1/256 kg/ha) of 10C and a response rating (barley) of 5G. For the same molecule, the response rating (nutsedge [4]; 1/32 kg/ha) was 10C and the response rating (nutsedge [4]; 1/256 kg/ha) was 3G.
With `COC(=O)c1ccccc1S(=O)(=O)NC(=O)Nc1nc(OC)cc(OC)n1` [drawing 607] the “response rating after 4 weeks” value (purple nutsedge [5]; .008 kg/ha) was 0, the “response rating after 4 weeks” value (purple nutsedge [5]; .032 kg/ha) was 10C and the “response rating after 4 weeks” value (purple nutsedge [6]) was 10C.
